Structures are written as SMILES. Read-outs that look alike come from different tables or passages of the source. Marks after values point to notes of the source that are not given here. Where only a bound is given, the exact number is not on record here.

Experimental findings from article PMC4099174 (Journal of Medicinal Chemistry, 2014) are described below.

In data set [1] the test system is bloodstream form of T. brucei. Briefly: Transferrin uptake (receptor-mediated endocytosis). It counts as cell-based, Trypanosoma brucei. Conditions: concentration twice the EC50, 18 h. An excerpt:
Highly efficient and rapid endocytosis is one of the most important cellular processes for this infective parasite to survive and multiply within the bloodstream of the host, and the activity of TbPI3KIII is essential for this process.[25] To gain insight on the possible target(s) of our compounds, we carried out transferrin uptake experiments to measure receptor-mediated endocytosis after drug treatment. […] Compound 16e induced a phenotype defective in endocytosis (Figure 3); however, the PIP3 molecular species identified (42:7-9) was not the same PIP3 molecular species identified in WT cells (44:9-12).
Two million trypanosomes were harvested and washed with TDB-glucose plus 1% BSA, resuspended in 250 μL in the same buffer, and incubated for 10 min at 37 °C prior to the addition of 5 μg of AlexaFluor 488-conjugated human holo-Tf (Invitrogen). Incubations were carried out for 0 (no Tf) or 3 min at 37 °C, after which cells were immediately fixed in 4 °C in 1% PFA diluted in cold PBS for at least 1 h. Parasites were finally washed twice with PBS and analyzed with a Becton Dickinson FACSCalibur flow cytometer (BD Biosciences) using BD CellQuest Pro version 4.0.2 software.

Data set [2] concerns Bloodstream form culture of T. b. brucei. Nature of the data set: Cell cycle analysis by FACS (propidium iodide). The format is cell-based, Trypanosoma brucei brucei. The note with it: concentration twice the EC50, 18 h. Here is the method: For cell cycle analysis, samples (1.5 × 10^6 cells) were collected, centrifuged (1400g at 4 °C for 5 min), and washed in trypanosome dilution buffer (TDB). The cell pellets were gently suspended in 50 μL of TDB and permeabilized by adding 1 μL of saponin (25 mg/mL) for 3 min. It was then mixed with another 450 μL of TDB. RNase and propidium iodide (PI) were added to the suspension at final concentrations of 10 and 20 μg/mL, respectively, and the samples were incubated at room temperature for 30 min and then stored at 4 °C. The DNA content of PI-stained cells and the percentage of cells in each phase of the cell cycle (10 000 cells per sample) were analyzed with a Becton Dickinson FACSCalibur flow cytometer (BD Biosciences) using BD CellQuest Pro version 4.0.2 software.
Figure S3. Cell Cycle analysis of parasites upon dosage with NVP-BEZ235 derivative.
Bloodstream form culture of T. b. brucei was subjected to different drugs and analyzed by
Fluorescencecactivated cell sorter (FACS) for DNA content stained by propidium iodide (PI).
Cell cultures were incubated during 18 h with various NVPcBEZ235 derivatives using DMSO as
a control treatment. Mean ± SD of three independent experiments are shown.
On the technique in general: A flow cytometer gives signals particle by particle.

In data set [3] the test system is phosphorylated PIs (PIP, PIP3) in T. brucei cells. Briefly: Phospholipidomics analysis (ES-MS of lipid extracts). The note with it: 200 nM, 12 h; negative ion mode scans 950–1300 m/z. It counts as cell-based, Trypanosoma brucei. The text has this: We originally selected 1 to investigate its potential as an trypanocidal agent on the basis of its activity as a PI3K/mTOR inhibitor in mammalian cells and the fact that PI3K activity is essential for the bloodstream form of the T. brucei parasite.[25] In the interest of elucidating the potential mechanism of action against T. brucei cells, we performed a lipidomic analysis to discern if PI kinases are likely targets of these analogues. Lipid extracts of cells grown in the presence of the best compounds at sublethal doses (200 nM) for 12 h were analyzed by ES-MS. […] There were no significant differences in the phosphatidylcholine (PC) and sphingomylein (SM) species between the control and cells grown in the presence of the other compounds (Figure S1). […] Alternatively, as is often the case, changes in the lipid profile could be a reflection in the cells succumbing to (or adapting to) a defect in a major cellular process, such as endo- or exocytosis or cell cycle arrest.
Because these compounds are thought to target PI3K, negative ion mode scans between 950 and 1300 m/z were conducted to focus upon singly and multiply phosphorylated PIs.
Total lipids from mid log phase cells were extracted by the method of Bligh and Dyer.[30] Briefly, mid log phase cells were collected by centrifugation (800g, 10 min), washed with PBS, resuspended in 100 μL of TDB-glucose, transferred to a glass tube containing 375 μL of 1:2 (v/v) CHCl3/MeOH, and vortexed. The sample was agitated vigorously for a further 10–15 min. The sample was made biphasic by the addition of 125 μL of CHCl3 and vortexed, and then 125 μL of H2O was added. The sample was vortexed again and centrifuged at 3000g at rt for 10 min. The lower (organic) phase was transferred into a new glass vial, and the aqueous phase was re-extracted with the fresh lower phase. The resultant lower phase lipid extract was dried under a stream of nitrogen and stored at 4 °C.
Lipid extracts were dissolved in 15 μL of CHCl3/MeOH (1:2) and 15 μL of acetonitrile/isopropanol/water (6:7:2) and analyzed with a triple quadrupole mass spectrometer (Absceix 4000 QTrap) equipped with a nanoelectrospray source. […] The lipid extracts were analyzed in both positive and negative ion modes using a capillary voltage of 1.25 kV. […] Tandem mass spectra (MS/MS) were obtained with collision energies as follows: 35–45 V, PC/SM in positive ion mode, parent-ion scanning of m/z 184; 35–55 V, PI in negative ion mode, parent-ion scanning of m/z 241; 35–65 V, PE in negative ion mode, parent-ion scanning of m/z 196; 20–35 V, PS in negative ion mode, neutral loss scanning of m/z 87; and 40–90 V, for all glycerophospholipids (including PA, PG, and cardiolipin) detected by precursor scanning for m/z 153 in negative ion mode. […]

[4] abbreviates: Table 1, Selectivity = TC50/EC50 (HepG2 / T. brucei).
Where [5] appears, read: Table 2, Selectivity = TC50/EC50.

Regarding `Cn1c(=O)n(-c2ccc(C(C)(C)C#N)cc2)c2c3cc(-c4ccncc4)ccc3ncc21` [Compound 4a], the “HepG2 TC50” value in the data set on HepG2 cell line (human, 48 h) stood at 3.43 µM.

For `Cn1c(=O)n(-c2ccc(C(C)(C)C#N)cc2)c2c3cc(-c4cccnc4)ccc3ncc21` [Compound 4b, 2-Methyl-2-(4-(3-methyl-2-oxo-8-(pyridin-3-yl)-2,3-dihydro-1H-imidazo[4,5-c]quinolin-1-yl)phenyl)propanenitrile], the “HepG2 cytotoxicity TC50” value in the data set with HepG2 cell line (human, 48 h) is on record as 575 nM.

For the compound `Cn1c(=O)n(-c2ccc(C(C)(C)C#N)cc2)c2c3cc(-c4ccccc4)ccc3ncc21` [Compound 4c, 2-Methyl-2-(4-(3-methyl-2-oxo-8-phenyl-2,3-dihydro-1H-imidazo[4,5-c]quinolin-1-yl)phenyl)propanenitrile], the “HepG2 TC50” value with HepG2 cell line (human, 48 h) is 1.82^d μM.

Turning to `Cn1c(=O)n(-c2ccc(C(C)(C)C#N)cc2)c2c3cc(-c4ccc(C(F)(F)F)nc4)ccc3ncc21` [Compound 4d, 2-Methyl-2-(4-(3-methyl-2-oxo-8-(6-(trifluoromethyl)pyridin-3-yl)-2,3-dihydro-1H-imidazo[4,5-c]quinolin-1-yl)phenyl)propanenitrile], the Selectivity in the data set with HepG2 cell line (setting [4]) was greater than 470.

On to `Cn1cc(-c2ccc3ncc4c(c3c2)n(-c2ccc(C(C)(C)C#N)cc2)c(=O)n4C)cn1` [Compound 4e, 2-Methyl-2-(4-(3-methyl-8-(1-methyl-1H-pyrazol-4-yl)-2-oxo-2,3-dihydro-1H-imidazo[4,5-c]quinolin-1-yl)phenyl)propanenitrile], for which the “transferrin uptake / endocytosis” value in data set [1] is given as “did not significantly reduce transferrin endocytosis”. Besides, in data set [2], the cell cycle progression entry was “reducing the proportion of cells in G1 and increasing multinucleated cells”. The “phosphorylated PI (PIP) levels vs control cells” value in data set [3] is “significant (albeit incomplete) reduction in PIP levels”.

As to `Cn1c(=O)n(-c2ccc(C(C)(C)C#N)cc2)c2c3cc(-c4cc5ccccc5s4)ccc3ncc21` [Compound 4f, 2-(4-(8-(Benzo[b]thiophen-2-yl)-3-methyl-2-oxo-2,3-dihydro-1H-imidazo[4,5-c]quinolin-1-yl)phenyl)-2-methylpropanenitrile], the Selectivity in the data set on HepG2 cell line (setting [4]) was greater than 460. The “HepG2 toxicity (in words)” value in the data set on HepG2 cell line (human, 48 h) is “no HepG2 toxicity observed”.

In the data set on HepG2 cell line (setting [4]), `CN1CCN(c2ccc3ncc4c(c3c2)n(-c2ccc(C(C)(C)C#N)cc2)c(=O)n4C)CC1` [Compound 5a, 2-Methyl-2-(4-(3-methyl-8-(4-methylpiperazin-1-yl)-2-oxo-2,3-dihydro-1H-imidazo[4,5-c]quinolin-1-yl)phenyl)propanenitrile] had a Selectivity greater than 5.

On to `Cn1c(=O)n(-c2ccc(C(C)(C)C#N)cc2)c2c3cc(N4CCOCC4)ccc3ncc21` [Compound 5b, 2-Methyl-2-(4-(3-methyl-8-morpholino-2-oxo-2,3-dihydro-1H-imidazo[4,5-c]quinolin-1-yl)phenyl)propanenitrile], for which the Selectivity with HepG2 cell line (setting [4]) is reported as greater than 24.

Take `Cn1c(=O)n(-c2ccc(C(C)(C)C#N)cc2)c2c3cc(N)ccc3ncc21` [Compound 6, 2-(4-(8-Amino-3-methyl-2-oxo-2,3-dihydro-1H-imidazo[4,5-c]quinolin-1-yl)phenyl)-2-methylpropanenitrile]: in the data set with HepG2 cell line (setting [4]), the Selectivity is greater than 4.

For `CC(=O)Nc1ccc2ncc3c(c2c1)n(-c1ccc(C(C)(C)C#N)cc1)c(=O)n3C` [Compound 7, N-(1-(4-(2-Cyanopropan-2-yl)phenyl)-3-methyl-2-oxo-2,3-dihydro-1H-imidazo[4,5-c]quinolin-8-yl)acetamide], in the data set on HepG2 cell line (setting [4]), the Selectivity is recorded as greater than 5.

On to `Cc1ccc2ncc3c(c2c1)n(-c1ccc(C(C)(C)C#N)cc1)c(=O)n3C` [Compound 8, 2-(4-(3,8-Dimethyl-2-oxo-2,3-dihydro-1H-imidazo[4,5-c]quinolin-1-yl)phenyl)-2-methylpropanenitrile], for which the Selectivity in the data set with HepG2 cell line (setting [4]) is greater than 10.

Take `Cn1c(=O)n(-c2ccc(C(C)(C)C#N)cc2)c2c3ccccc3ncc21` [Compound 9, 2-Methyl-2-(4-(3-methyl-2-oxo-2,3-dihydro-1H-imidazo[4,5-c]quinolin-1-yl)phenyl)propanenitrile]: the Selectivity in the data set with HepG2 cell line (setting [4]) is greater than 80. The “HepG2 TC50” value with HepG2 cell line (human, 48 h) is greater than 50 µM.

Turning to `Cn1c(=O)n(-c2ccc(C(C)(C)C#N)cc2)c2c3cc(C#Cc4cccnc4)ccc3ncc21` [Compound 10, reference compound], the “HepG2 TC50” value in the data set on HepG2 cell line (human, 48 h) is 0.14^d μM.

For `Cn1c(=O)n(-c2ccc(C(F)(F)F)cc2)c2c3cc(-c4cnc5ccccc5c4)ccc3ncc21` [Compound 16a, 3-Methyl-8-(quinolin-3-yl)-1-(4-(trifluoromethyl)phenyl)-1H-imidazo[4,5-c]quinolin-2(3H)-one], the Selectivity with HepG2 cell line (setting [5]) is greater than 240.

Consider `Cn1c(=O)n(-c2ccc(C#N)cc2)c2c3cc(-c4cnc5ccccc5c4)ccc3ncc21` [Compound 16b, 4-(3-Methyl-2-oxo-8-(quinolin-3-yl)-2,3-dihydro-1H-imidazo[4,5-c]quinolin-1-yl)benzonitrile], for which the Selectivity in the data set on HepG2 cell line (setting [5]) is on record as greater than 540.

Take `Cn1c(=O)n(-c2ccccc2)c2c3cc(-c4cnc5ccccc5c4)ccc3ncc21` [Compound 16c, 3-Methyl-1-phenyl-8-(quinolin-3-yl)-1H-imidazo[4,5-c]quinolin-2(3H)-one]: the Selectivity with HepG2 cell line (setting [5]) is greater than 1000.

In the data set on HepG2 cell line (setting [5]), `Cn1c(=O)n(-c2ccc(CC#N)cc2)c2c3cc(-c4ccncc4)ccc3ncc21` [Compound 16d, 2-(4-(3-Methyl-2-oxo-8-(pyridin-4-yl)-2,3-dihydro-1H-imidazo[4,5-c]quinolin-1-yl)phenyl)acetonitrile] came in with a Selectivity greater than 560.

For the compound `CN(C)c1ccc(-n2c(=O)n(C)c3cnc4ccc(-c5ccncc5)cc4c32)cc1` [Compound 16h, 1-(4-(Dimethylamino)phenyl)-3-methyl-8-(pyridin-4-yl)-1H-imidazo[4,5-c]quinolin-2(3H)-one], in the data set on HepG2 cell line (human, 48 h), the “HepG2 TC50” value turned out to be 2.34 µM.

`Cn1c(=O)n(-c2ccc(N3CCOCC3)cc2)c2c3cc(-c4ccncc4)ccc3ncc21` [Compound 16i, 3-Methyl-1-(4-morpholinophenyl)-8-(pyridin-4-yl)-1H-imidazo[4,5-c]quinolin-2(3H)-one] had a Selectivity in the data set on HepG2 cell line (setting [5]) greater than 24.
